Among the data in patent US9073855B2, “BCL-2 selective apoptosis-inducing agents for the treatment of cancer and immune diseases” (AbbVie Inc., priority 2008, dated 2015) are Ki and EC50 values, retold here.

Usually Ki stands for a dissociation constant, usually derived from enzyme kinetics or from competition with a known ligand. Higher therefore signals lower affinity. Broadly, the EC50 is the midpoint of the concentration-response curve.

The target of one experiment is GST-Bcl-XL (Homo sapiens, UniProt Q07817). Briefly: TR-FRET binding assay, GST-Bcl-XL with F-Bak peptide probe. As to conditions: TR-FRET Binding Affinity, GST-Bcl-XL, F-Bak peptide probe. The method in brief:
(§1)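 Compounds were serially diluted in DMSO from a 50 μM starting solution (2× the starting concentration; 10% DMSO). Plates were incubated for 3 h at room temperature, and TR-FRET was read with 340/35 nm excitation and emission at 520/525 nm (F-Bak) and 495/510 nm (Tb antibody). Ki values were calculated using Wang's competitive-binding equation.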
A general note: Time-resolved FRET reads energy transfer from a long-lived donor to a nearby acceptor.

A further experiment concerns the target GST-Bcl-2 (Homo sapiens, UniProt P10415). Briefly: TR-FRET binding assay, GST-Bcl-2 with F-Bak peptide probe. As to conditions: TR-FRET Binding Affinity, GST-Bcl-2, F-Bak peptide probe. The essentials:
as §1

In another experiment the test system is FL5.12/Bcl-2 cells. Briefly: FL5.12/Bcl-2 cell viability assay under IL-3 withdrawal (CellTitre Glo). It is filed as cell-based, murine. The note with it: Mus musculus, IL-3 withdrawn 48 hrs, then 24 hrs with compound. The essentials:
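Viability measured by CellTitre Glo after FL5.12/Bcl-2 murine cells, starved of IL-3 for 48 hrs, were treated with compounds for another 24 hrs. Killing reflects inhibition of Bcl-2 sequestration of Bim and Puma.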

The test system of the next experiment is Canine platelets. Briefly: Platelet cell viability assay (platelet-rich plasma, Cell Titer Glo). It is filed as cell-based. As to conditions: Canis lupus familiaris, 5 h, isolated canine platelets ex vivo, five hours at 37° C. The method in brief:
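Isolated canine platelets were incubated ex vivo with a range of compound concentrations. After 20 min equilibration at room temperature, viability was measured by Cell Titer Glo luminescence.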
A general note: ATP-based viability assays read luminescence as a measure of living cells.

Chain of GST-Bcl-XL (Q07817 whole entry): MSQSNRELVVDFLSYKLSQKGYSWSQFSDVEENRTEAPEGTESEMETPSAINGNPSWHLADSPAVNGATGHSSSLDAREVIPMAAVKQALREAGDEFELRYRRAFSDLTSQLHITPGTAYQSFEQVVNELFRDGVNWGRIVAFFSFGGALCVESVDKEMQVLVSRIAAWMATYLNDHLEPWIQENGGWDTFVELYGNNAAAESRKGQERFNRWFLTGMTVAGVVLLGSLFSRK
Chain of GST-Bcl-2 (P10415 whole entry): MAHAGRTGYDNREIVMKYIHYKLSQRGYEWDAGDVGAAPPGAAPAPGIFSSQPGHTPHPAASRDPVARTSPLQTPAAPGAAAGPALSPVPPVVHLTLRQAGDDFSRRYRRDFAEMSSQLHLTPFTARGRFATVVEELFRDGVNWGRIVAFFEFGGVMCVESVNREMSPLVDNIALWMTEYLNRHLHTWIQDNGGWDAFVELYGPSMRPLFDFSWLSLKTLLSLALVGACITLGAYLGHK

`CN1CCN(CCCNc2ccc(S(=O)(=O)NC(=O)c3ccc(N4CCN(CC5=C(c6ccc(Cl)cc6)CC(C)(C)CC5)CC4)cc3Oc3ccc4[nH]ccc4c3)cc2[N+](=O)[O-])CC1` [Example 96, 4-(4-{[2-(4-chlorophenyl)-4,4-dimethylcyclohex-1-en-1-yl]methyl}piperazin-1-yl)-2-(1H-indol-5-yloxy)-N-[(4-{[3-(4-methylpiperazin-1-yl)propyl]amino}-3-nitrophenyl)sulfonyl]benzamide]: the Ki at GST-Bcl-XL turned out to be 8.78 nM; at GST-Bcl-2, 0.047 nM. Moreover, the EC50 with FL5.12/Bcl-2 cells was determined as 11 nM; with Canine platelets it was 22.3 µM.
The corresponding values for `CC1(C)CCC(CN2CCN(c3ccc(C(=O)NS(=O)(=O)c4ccc(NCCCN5CCCC5)c([N+](=O)[O-])c4)c(Oc4ccc5[nH]ccc5c4)c3)CC2)=C(c2ccc(Cl)cc2)C1` [Example 97, 4-(4-{[2-(4-chlorophenyl)-4,4-dimethylcyclohex-1-en-1-yl]methyl}piperazin-1-yl)-2-(1H-indol-5-yloxy)-N-({3-nitro-4-[(3-pyrrolidin-1-ylpropyl)amino]phenyl}sulfonyl)benzamide] are 2.61 nM, 0.027 nM, 13 nM and 14.1 µM.
As for `CN1CCN(CCCNc2ccc(S(=O)(=O)NC(=O)c3ccc(N4CCN(CC5=C(c6ccc(Cl)cc6)CC(C)(C)CC5)CC4)cc3Oc3cccc4[nH]ccc34)cc2[N+](=O)[O-])CC1` [Example 99, 4-(4-{[2-(4-chlorophenyl)-4,4-dimethylcyclohex-1-en-1-yl]methyl}piperazin-1-yl)-2-(1H-indol-4-yloxy)-N-[(4-{[3-(4-methylpiperazin-1-yl)propyl]amino}-3-nitrophenyl)sulfonyl]benzamide], the Ki was determined as 5.53 nM at GST-Bcl-XL and 0.04 nM at GST-Bcl-2. Also, the EC50 with FL5.12/Bcl-2 cells came out at 9 nM; with Canine platelets, 21.7 µM.
The corresponding values for `CN(C)CCCOc1ccc(S(=O)(=O)NC(=O)c2ccc(N3CCN(CC4=C(c5ccc(Cl)cc5)CC(C)(C)CC4)CC3)cc2Oc2ccc3[nH]ccc3c2)cc1[N+](=O)[O-]` [Example 100, 4-(4-{[2-(4-chlorophenyl)-4,4-dimethylcyclohex-1-en-1-yl]methyl}piperazin-1-yl)-N-({4-[3-(dimethylamino)propoxy]-3-nitrophenyl}sulfonyl)-2-(1H-indol-5-yloxy)benzamide] are 8.29 nM, 0.116 nM, 15 nM and 31.2 µM.
On to `CC1(C)CCC(CN2CCN(c3ccc(C(=O)NS(=O)(=O)c4ccc(NCCCN5CCCC5)c([N+](=O)[O-])c4)c(Oc4cccc5[nH]ccc45)c3)CC2)=C(c2ccc(Cl)cc2)C1` [Example 102, 4-(4-{[2-(4-chlorophenyl)-4,4-dimethylcyclohex-1-en-1-yl]methyl}piperazin-1-yl)-2-(1H-indol-4-yloxy)-N-({3-nitro-4-[(3-pyrrolidin-1-ylpropyl)amino]phenyl}sulfonyl)benzamide], for which the Ki is 2.24 nM at GST-Bcl-XL and 0.035 nM on GST-Bcl-2. Further, the results for the EC50 with FL5.12/Bcl-2 cells and in the experiment with Canine platelets were 20 nM and 20.2 µM, respectively.
`CN1CCC(Nc2ccc(S(=O)(=O)NC(=O)c3ccc(N4CCN(CC5=C(c6ccc(Cl)cc6)CC(C)(C)CC5)CC4)cc3Oc3cccc4[nH]ccc34)cc2[N+](=O)[O-])CC1` [Example 103, 4-(4-{[2-(4-chlorophenyl)-4,4-dimethylcyclohex-1-en-1-yl]methyl}piperazin-1-yl)-2-(1H-indol-4-yloxy)-N-({4-[(1-methylpiperidin-4-yl)amino]-3-nitrophenyl}sulfonyl)benzamide]: the Ki on GST-Bcl-XL worked out at 117 nM; at GST-Bcl-2, 0.056 nM. In addition, the EC50 was found to be 14 nM in the experiment on FL5.12/Bcl-2 cells and 31.4 µM in the experiment with Canine platelets.
The corresponding values for `CN1CCC(CNc2ccc(S(=O)(=O)NC(=O)c3ccc(N4CCN(CC5=C(c6ccc(Cl)cc6)CC(C)(C)CC5)CC4)cc3Oc3ccc4[nH]ccc4c3)cc2[N+](=O)[O-])CC1` [Example 104, 4-(4-{[2-(4-chlorophenyl)-4,4-dimethylcyclohex-1-en-1-yl]methyl}piperazin-1-yl)-2-(1H-indol-5-yloxy)-N-[(4-{[(1-methylpiperidin-4-yl)methyl]amino}-3-nitrophenyl)sulfonyl]benzamide] are 49.1 nM, 0.077 nM, 21 nM and > 50 µM.
With `CN1CCC(CNc2ccc(S(=O)(=O)NC(=O)c3ccc(N4CCN(CC5=C(c6ccc(Cl)cc6)CC(C)(C)CC5)CC4)cc3Oc3cccc4[nH]ccc34)cc2[N+](=O)[O-])CC1` [Example 105, 4-(4-{[2-(4-chlorophenyl)-4,4-dimethylcyclohex-1-en-1-yl]methyl}piperazin-1-yl)-2-(1H-indol-4-yloxy)-N-[(4-{[(1-methylpiperidin-4-yl)methyl]amino}-3-nitrophenyl)sulfonyl]benzamide], the values for the Ki at GST-Bcl-XL and at GST-Bcl-2 were 5.02 nM and 0.08 nM, respectively. Besides, the EC50 worked out at 13 nM in the experiment with FL5.12/Bcl-2 cells and 30.3 µM in the experiment with Canine platelets.
Regarding `CN1CCC(CNc2ccc(S(=O)(=O)NC(=O)c3ccc(N4CCN(CC5=C(c6ccc(Cl)cc6)CC(C)(C)CC5)CC4)cc3Oc3ccc4[nH]ccc4c3)cc2[N+](=O)[O-])(N(C)C)CC1` [Example 109, 4-(4-{[2-(4-chlorophenyl)-4,4-dimethylcyclohex-1-en-1-yl]methyl}piperazin-1-yl)-N-{[4-({[4-(dimethylamino)-1-methylpiperidin-4-yl]methyl}amino)-3-nitrophenyl]sulfonyl}-2-(1H-indol-5-yloxy)benzamide], the Ki is > 660 nM at GST-Bcl-XL and 0.161 nM on GST-Bcl-2. Besides, the EC50 in the experiment on FL5.12/Bcl-2 cells is 36 nM; in the experiment on Canine platelets, > 50 µM.
The corresponding values for `CN(C)CCOc1ccc(-c2ccc(Cl)cc2)c(CN2CCN(c3ccc(C(=O)NS(=O)(=O)c4ccc(NCC5CCOCC5)c(S(=O)(=O)C(F)(F)F)c4)c(Oc4ccccc4)c3)CC2)c1` [Example 120, 4-[4-({4′-chloro-4-[2-(dimethylamino)ethoxy]-1,1′-biphenyl-2-yl}methyl)piperazin-1-yl]-2-phenoxy-N-({4-[(tetrahydro-2H-pyran-4-ylmethyl)amino]-3-[(trifluoromethyl)sulfonyl]phenyl}sulfonyl)benzamide] are 99.6 nM, 0.443 nM, 319 nM and > 50 µM.
On to `CN(C)CCOc1ccc(-c2ccc(Cl)cc2)c(CN2CCN(c3ccc(C(=O)NS(=O)(=O)c4ccc(NCCCN5CCCC5)c([N+](=O)[O-])c4)c(Oc4ccccc4)c3)CC2)c1` [Example 121, 4-[4-({4′-chloro-4-[2-(dimethylamino)ethoxy]-1,1′-biphenyl-2-yl}methyl)piperazin-1-yl]-N-({3-nitro-4-[(3-pyrrolidin-1-ylpropyl)amino]phenyl}sulfonyl)-2-phenoxybenzamide], for which the results for the Ki at GST-Bcl-XL and on GST-Bcl-2 were 0.388 nM and 0.001 nM, respectively. For the same compound, the EC50 in the experiment on FL5.12/Bcl-2 cells was 38 nM; with Canine platelets, 0.309 µM.
For the compound `CN(C)CCOc1cccc(-c2ccc(Cl)cc2)c1CN1CCN(c2ccc(C(=O)NS(=O)(=O)c3ccc(NCC4CCOCC4)c([N+](=O)[O-])c3)c(Oc3ccccc3)c2)CC1` [Example 122, 4-[4-({4′-chloro-3-[2-(dimethylamino)ethoxy]-1,1′-biphenyl-2-yl}methyl)piperazin-1-yl]-N-({3-nitro-4-[(tetrahydro-2H-pyran-4-ylmethyl)amino]phenyl}sulfonyl)-2-phenoxybenzamide], the values for the inhibitory constant (Ki) at GST-Bcl-XL and on GST-Bcl-2 were 12.1 nM and 0.058 nM, respectively. The concentration giving a half-maximal response (EC50) with FL5.12/Bcl-2 cells is 40 nM; in the experiment on Canine platelets it was > 50 µM.
For `CN(C)CCOc1cccc(-c2ccc(Cl)cc2)c1CN1CCN(c2ccc(C(=O)NS(=O)(=O)c3ccc(NCCCN4CCCC4)c([N+](=O)[O-])c3)c(Oc3ccccc3)c2)CC1` [Example 123, 4-[4-({4′-chloro-3-[2-(dimethylamino)ethoxy]-1,1′-biphenyl-2-yl}methyl)piperazin-1-yl]-N-({3-nitro-4-[(3-pyrrolidin-1-ylpropyl)amino]phenyl}sulfonyl)-2-phenoxybenzamide], the Ki at GST-Bcl-XL was determined as 1.37 nM; at GST-Bcl-2 it was 0.015 nM. Further, the EC50 in the experiment with FL5.12/Bcl-2 cells turned out to be 87 nM; in the experiment on Canine platelets, 2.81 µM.
The corresponding values for `CN(C)CCOc1ccc(-c2ccc(Cl)cc2)c(CN2CCN(c3ccc(C(=O)NS(=O)(=O)c4ccc(NCC5CCOCC5)c([N+](=O)[O-])c4)c(Oc4cccc5[nH]ccc45)c3)CC2)c1` [Example 125, 4-[4-({4′-chloro-4-[2-(dimethylamino)ethoxy]-1,1′-biphenyl-2-yl}methyl)piperazin-1-yl]-2-(1H-indol-4-yloxy)-N-({3-nitro-4-[(tetrahydro-2H-pyran-4-ylmethyl)amino]phenyl}sulfonyl)benzamide] are 11.6 nM, 0.003 nM, 10 nM and 44.8 µM.
For `CN(C)CCOc1ccc(-c2ccc(Cl)cc2)c(CN2CCN(c3ccc(C(=O)NS(=O)(=O)c4ccc(NCC5CCOCC5)c([N+](=O)[O-])c4)c(Oc4ccc5[nH]ccc5c4)c3)CC2)c1` [Example 126, 4-[4-({4′-chloro-4-[2-(dimethylamino)ethoxy]-1,1′-biphenyl-2-yl}methyl)piperazin-1-yl]-2-(1H-indol-5-yloxy)-N-({3-nitro-4-[(tetrahydro-2H-pyran-4-ylmethyl)amino]phenyl}sulfonyl)benzamide], the Ki on GST-Bcl-XL was 163 nM; on GST-Bcl-2, 0.012 nM. Besides, the EC50 with FL5.12/Bcl-2 cells was 31 nM; with Canine platelets it was > 50 µM.
